Among the test systems are HCT-116 colon; M14 melanoma; MDA-MB-231 breast; MOLT-4 leukemia; NCI-H460 lung; SK-MEL-28 melanoma; SK-MEL-5 melanoma; SN12C renal; SNB-75 CNS; UO-31 renal.
Holding throughout (experiment): inhibition of tumour cell growth, NCI panel, 48 h

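Each compound was tested at five concentrations against cells in 96-well plates for 48 hours. The concentration for full growth arrest is given as TGI.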 Where a SMILES comes first, the peptide text is derived from it. [ ]: non-standard residue; d: D form. The star is where a group is joined. ξ: configuration not given here. Propanoyl(3-(4-MeO-Ph)) = COc1ccc(CCC(=O)*)cc1; Thr(3ξ) = CC(O)[C@H](N)C(=O)O; dNMeL = CN[C@H](CC(C)C)C(=O)O; pGlu = O=C1CC[CH](C(=O)O)N1; ξLac = CC(O)C(=O)O

In the case of `COc1nc2ccc(CNc3ccc(C(=O)O)cc3)cc2nc1OC`, the TGI in the experiment on HCT-116 colon, with M14 melanoma, with MDA-MB-231 breast, in the experiment with MOLT-4 leukemia, in the experiment on NCI-H460 lung and in the experiment on SK-MEL-28 melanoma was above 10 µM in each case. In addition, the TGI in the experiment with SK-MEL-5 melanoma, with SN12C renal and in the experiment with SNB-75 CNS was above 10 µM throughout.

With `CC(NC(=O)C(Cc1cnc[nH]1)NC(=O)C1CCC(=O)N1)C(N)=O` (stereo not drawn) ([pGlu]-His-Ala-NH2; configuration not given here), the TGI with HCT-116 colon, in the experiment on M14 melanoma, in the experiment on MDA-MB-231 breast, with MOLT-4 leukemia, in the experiment with NCI-H460 lung and with SK-MEL-28 melanoma was above 100 µM each time. The TGI in the experiment on SK-MEL-5 melanoma, with SN12C renal, in the experiment on SNB-75 CNS and with UO-31 renal was above 100 µM throughout.

For `CC(C)(C)OC(=O)N1Cc2cc(O)ccc2C[C@H]1C(=O)O`, the TGI in the experiment with HCT-116 colon, in the experiment on MDA-MB-231 breast, in the experiment on MOLT-4 leukemia, in the experiment with NCI-H460 lung, in the experiment on SK-MEL-28 melanoma and in the experiment on SK-MEL-5 melanoma was above 100 µM throughout. Further, the TGI in the experiment on SN12C renal and in the experiment with SNB-75 CNS was above 100 µM in each case.

With `COC(=O)C(Cc1ccccc1)NC(=O)c1ccc(CNC(=S)NCc2cccc(CNC(=S)NCc3ccccc3)c2)cc1` (centres undefined), the TGI with HCT-116 colon, with M14 melanoma, with MDA-MB-231 breast, in the experiment on MOLT-4 leukemia, in the experiment with NCI-H460 lung and in the experiment with SK-MEL-28 melanoma was above 62.5 µM throughout. In addition, the TGI in the experiment with SK-MEL-5 melanoma, in the experiment with SN12C renal, in the experiment on SNB-75 CNS and in the experiment on UO-31 renal was above 62.5 µM each time.

In the case of `COc1cc(/C=c2/c3ccccc3n3c2cc(-c2ccccc2)[n+]3C)cc(OC)c1OC`, the TGI in the experiment with HCT-116 colon is 6.96 µM; in the experiment on M14 melanoma, above 35.8 µM; in the experiment on MDA-MB-231 breast, 14.8 µM; in the experiment on MOLT-4 leukemia, above 64.9 µM; with NCI-H460 lung, 17.1 µM; with SK-MEL-28 melanoma it was 19.1 µM. Moreover, the TGI is 6.73 µM with SK-MEL-5 melanoma, 12 µM in the experiment on SN12C renal, 15.2 µM in the experiment with SNB-75 CNS and above 35.9 µM with UO-31 renal.

Regarding `COc1cc(C2c3cc4c(cc3OC3(OC)COC(=O)C23)OCO4)cc(OC)c1OC` (centres undefined), the TGI in the experiment with HCT-116 colon is 7 µM; with M14 melanoma it was 8.43 µM; in the experiment with MDA-MB-231 breast, 2.08 µM; with MOLT-4 leukemia, 12.2 µM; with NCI-H460 lung it was above 67.9 µM; in the experiment with SK-MEL-28 melanoma it was above 100 µM. In addition, the TGI with SK-MEL-5 melanoma is 7.46 µM; with SN12C renal, above 80.5 µM; in the experiment with SNB-75 CNS it was above 100 µM; in the experiment with UO-31 renal it was above 100 µM.

In the case of `COC(=O)[C@@H](NC(=O)[C@@H](CC(C)C)N(C)C(=O)[C@@H]1CCCN1C(=O)C(C)O)C(C)OC(=O)CCc1ccc(OC)cc1` (some centres undefined) (H-[ξLac]P[dNMeL][Thr(3ξ)](Propanoyl(3-(4-MeO-Ph)))-OMe), the TGI with HCT-116 colon, with M14 melanoma, in the experiment with MDA-MB-231 breast, with MOLT-4 leukemia, with NCI-H460 lung and in the experiment on SK-MEL-28 melanoma was above 100 µM each time. For the same compound, the TGI with SK-MEL-5 melanoma, in the experiment on SN12C renal, with SNB-75 CNS and with UO-31 renal was above 100 µM throughout.

As to `COc1ccc(-c2nnc(CCCCCCCCc3nnc(-c4ccc(OC)cc4)n3N)n2N)cc1`, the TGI with HCT-116 colon, in the experiment on M14 melanoma, in the experiment on MDA-MB-231 breast, in the experiment with MOLT-4 leukemia, with NCI-H460 lung and in the experiment on SK-MEL-28 melanoma was above 100 µM each time. The TGI is above 100 µM in the experiment with SK-MEL-5 melanoma, above 100 µM in the experiment on SN12C renal, above 66.4 µM in the experiment on SNB-75 CNS and above 100 µM with UO-31 renal.

Consider `COc1ccc(-c2nnc(-c3ccncc3)o2)cc1`, for which the TGI in the experiment with HCT-116 colon, in the experiment with M14 melanoma, with MDA-MB-231 breast, with MOLT-4 leukemia, with SK-MEL-28 melanoma and in the experiment on SK-MEL-5 melanoma was above 100 µM throughout. The TGI with SN12C renal, in the experiment on SNB-75 CNS and with UO-31 renal was above 100 µM each time.

Consider `Clc1ccc2nc(CC3CCCC3)[nH]c2c1`, for which the TGI in the experiment on HCT-116 colon came to 32 µM; in the experiment on M14 melanoma, 38.2 µM; in the experiment with MDA-MB-231 breast it was 43.6 µM; in the experiment on MOLT-4 leukemia, 35 µM; with NCI-H460 lung it was 46.9 µM; with SK-MEL-28 melanoma, 63.9 µM. In addition, the TGI in the experiment on SK-MEL-5 melanoma was determined as 24.9 µM; in the experiment with SN12C renal, 36.8 µM; in the experiment on SNB-75 CNS, 56 µM.

In the case of `Cc1ccc(C(=O)C2=CN=C3C(=O)N(c4ccccc4)N(C)C3(C)C2=N)cc1` (centres undefined), the TGI in the experiment with HCT-116 colon, in the experiment on M14 melanoma, in the experiment on MDA-MB-231 breast, in the experiment with MOLT-4 leukemia, in the experiment with NCI-H460 lung and in the experiment with SK-MEL-5 melanoma was above 100 µM each time. Also, the TGI with SN12C renal, in the experiment on SNB-75 CNS and with UO-31 renal was above 100 µM each time.

With `COC12OC3CC4(C)C(=CC3OC(OC(C)C1O)C2O)CCC1C4CCC2(C)C(c3ccc(=O)oc3)CCC12O` (centres undefined), the TGI in the experiment on HCT-116 colon is 0.00193 µM; in the experiment on M14 melanoma it was 0.00497 µM; in the experiment on MDA-MB-231 breast, 0.00792 µM; in the experiment on MOLT-4 leukemia it was below 0.001 µM; in the experiment on NCI-H460 lung it was 0.00224 µM; with SK-MEL-28 melanoma, 0.0434 µM. In addition, the TGI in the experiment with SK-MEL-5 melanoma was 0.00171 µM; in the experiment on SN12C renal, 0.00153 µM; in the experiment on SNB-75 CNS it was 0.00571 µM; in the experiment with UO-31 renal, 0.00457 µM.

As to `CCCC(=O)Nc1cc(/C=C/C(=O)N2CC(CCl)c3c2cc([N+](=O)[O-])c2ccccc32)n(C)c1` (centres undefined), the TGI in the experiment with HCT-116 colon, with M14 melanoma, with MDA-MB-231 breast, in the experiment with MOLT-4 leukemia, with NCI-H460 lung and with SK-MEL-28 melanoma was above 100 µM each time. Further, the TGI with SK-MEL-5 melanoma is above 100 µM; with SN12C renal, above 100 µM; with SNB-75 CNS, 97.7 µM; in the experiment on UO-31 renal, above 100 µM.

The values above are taken from PubChem BioAssay (NCI).
